Legend:
FLT3(D835V) = molecular target: T1, FLT3(D835V) (Homo sapiens, UniProt P36888, D835V); experiment: Kinase competition binding assay, FLT3(D835V); settings: Table 1 kinase panel
T1 construct: made in house
T1 sequence (P36888 27-993 D835V): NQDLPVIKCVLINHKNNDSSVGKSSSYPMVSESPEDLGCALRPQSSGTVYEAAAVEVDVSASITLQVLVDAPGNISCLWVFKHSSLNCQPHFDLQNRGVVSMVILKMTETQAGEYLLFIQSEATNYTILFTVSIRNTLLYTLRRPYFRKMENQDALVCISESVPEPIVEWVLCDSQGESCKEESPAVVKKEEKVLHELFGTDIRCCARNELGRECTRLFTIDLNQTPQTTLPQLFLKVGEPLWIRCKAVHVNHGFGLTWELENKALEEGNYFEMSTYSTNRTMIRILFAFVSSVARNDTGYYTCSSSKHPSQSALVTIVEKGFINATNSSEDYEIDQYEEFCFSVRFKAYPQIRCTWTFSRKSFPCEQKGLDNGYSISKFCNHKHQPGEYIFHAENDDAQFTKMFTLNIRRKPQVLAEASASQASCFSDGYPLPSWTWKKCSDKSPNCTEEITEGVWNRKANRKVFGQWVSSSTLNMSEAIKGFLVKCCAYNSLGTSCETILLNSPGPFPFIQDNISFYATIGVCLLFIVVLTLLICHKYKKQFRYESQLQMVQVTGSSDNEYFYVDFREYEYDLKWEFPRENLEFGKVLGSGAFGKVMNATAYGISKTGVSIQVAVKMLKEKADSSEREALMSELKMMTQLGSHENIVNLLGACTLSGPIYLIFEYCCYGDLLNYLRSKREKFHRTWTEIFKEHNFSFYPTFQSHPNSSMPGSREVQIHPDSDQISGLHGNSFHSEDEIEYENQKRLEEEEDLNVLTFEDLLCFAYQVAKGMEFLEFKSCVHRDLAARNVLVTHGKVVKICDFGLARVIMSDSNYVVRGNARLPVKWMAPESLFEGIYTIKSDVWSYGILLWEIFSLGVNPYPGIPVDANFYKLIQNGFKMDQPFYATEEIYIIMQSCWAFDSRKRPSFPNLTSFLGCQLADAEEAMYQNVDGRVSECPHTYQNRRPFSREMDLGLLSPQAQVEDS
Experimental: (§1) Cannabis flavonoids and their analogs were subjected to kinase inhibition assay. The compounds were first screened at a single concentration of 10 μM in the primary assay. […]. To determine the kd or IC50 values, competition binding assays were established, authenticated and executed as described previously. Fabian et al., “A Small Molecule-Kinase Interaction Map For Clinical Kinase Inhibitors.”, Nat Biotechnol, 23(3):329-36, Epub (2005). See also, Karaman et al., “A Quantitative Analysis Of Kinase Inhibitor Selectivity”, Nat. Biotechnol. […] For most assays, kinases were fused to T7 phage strains (Fabian, supra) and for the other assays, kinases were produced in HEK-293 cells after which they were tagged with DNA for quantitative PCR detection. In general, full-length constructs were used for small, single domain kinases, and catalytic domain constructs for large multi-domain kinases. The binding assays utilized streptavidin-coated magnetic beads treated with biotinylated small molecule ligands for 30 minutes at room temperature which generated affinity resins for the kinase assays. The liganded beads were blocked with excess biotin and washed with blocking buffer (SeaBlock (Pierce), 1% BSA, 0.05% Tween 20, 1 mM DTT) to remove unbound ligand and to reduce non-specific phage binding. […] Test compounds were prepared as 40× stocks in 100% DMSO and diluted directly into the assay (Final DMSO concentration=2.5%). All reactions were performed in polypropylene 384-well plates in a final volume of 0.04 ml. […] The beads were then re-suspended in elution buffer (1×PBS, 0.05% Tween 20, 0.5 μM non-biotinylated affinity ligand) and incubated at room temperature with shaking for 30 minutes. The kinase concentration in the eluates was measured by quantitative PCR. An illustration of the kinase interaction process is presented below. Kd/IC50 values were determined using a standard dose response curve using the hill equation. Curves were fitted using a non-linear least square fit with the Levenberg-Marquardt algorithm.
(§2) The compound(s) were screened at 10 μM and results for primary screen binding interactions are reported as ‘% Ctrl’, where lower numbers indicate stronger hits in the matrix.

RIOK1 = molecular target: T2, RIOK1 (Homo sapiens, UniProt Q9BRS2); experiment: Kinase competition binding assay, RIOK1; settings: Table 1 kinase panel
T2 construct: T7 phage fusion (most assays) or DNA tag for qPCR (HEK-293-made kinases); made in house
T2 sequence (Q9BRS2 1-568): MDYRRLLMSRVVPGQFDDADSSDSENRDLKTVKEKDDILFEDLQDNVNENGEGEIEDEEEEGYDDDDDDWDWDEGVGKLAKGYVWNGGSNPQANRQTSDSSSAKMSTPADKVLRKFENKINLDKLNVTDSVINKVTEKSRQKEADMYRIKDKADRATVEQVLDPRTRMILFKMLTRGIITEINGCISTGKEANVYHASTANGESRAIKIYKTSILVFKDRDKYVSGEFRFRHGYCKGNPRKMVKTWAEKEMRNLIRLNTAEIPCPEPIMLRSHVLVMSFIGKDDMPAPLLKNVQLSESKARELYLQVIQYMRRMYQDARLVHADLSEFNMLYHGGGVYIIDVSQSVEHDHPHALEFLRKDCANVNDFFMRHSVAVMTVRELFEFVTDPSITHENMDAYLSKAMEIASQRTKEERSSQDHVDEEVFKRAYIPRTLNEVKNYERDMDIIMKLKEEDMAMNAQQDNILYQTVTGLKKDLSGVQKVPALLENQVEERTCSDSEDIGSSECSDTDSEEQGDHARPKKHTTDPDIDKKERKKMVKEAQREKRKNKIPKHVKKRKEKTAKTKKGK
Experimental: as §1, §2

U87 (Glioma) = experiment: WST-1 anticancer cell proliferation assay, U87; assay type: cell-based; settings: 72 hours
Experimental: Bioactivity of the above-described compounds has been verified by an anticancer cell proliferation assay using the WST-1 (4-[3-(4-iodophenyl)-2-(4-nitrophenyl)-2H-5-tetrazolio]-1, 3-benzene disulfonate) colorimetric assay by Roche Life Sciences®. Anticancer activity was tested against several standard cancer cell lines including brain, breast, Kaposi sarcoma, leukemia, lung, melanoma, tenosynovial giant cell tumor, ovarian, pancreatic, colon and prostate cancer. Cells were trypsinized and plated into 96 well plates in 50 μl of media and incubated overnight. The next day approximately 18 hours after plating, 50 μl of media containing the required flavonoid-based pharmaceutical composition was added per well. Cells were plated at a density so that 72 hours post drug addition, the cells will be in log phase (500)-2000 cells/well). The compounds and extracts were solubilized in Dimethyl sulfoxide (DMSO). The cells are allowed to proliferate for 72 hours 37° C. in humidified atmosphere of 5% CO2. The experiment is terminated using WST-1 (Roche®) 10 μl per well and absorbance is read at 450 nm %690 nm. The effect of drugs on growth is assessed as percent of cell viability. The IC50 values were determined from the extract dose versus control growth curves using Graphpad Prism® software. All experiments were carried out in duplicate and the mean results determined.

Compound | IC50 (FLT3(D835V)) [nM] | IC50 (RIOK1) [nM] | IC50 (U87 (Glioma)) [µM]
COc1cc(-c2cc(=O)c3c(O)c(C/C=C(\C)CCC=C(C)C)c(O)cc3o2)ccc1O [FBL-03A] | 220 | > 20000 | 34
COc1cc(-c2cc(=O)c3c(O)c(CC=C(C)C)c(O)cc3o2)ccc1O [FBL-03B] | < 1000 | > 10000 | 6.2
COc1cc(-c2cc(=O)c3c(O)cc(O)c(C/C=C(\C)CCC=C(C)C)c3o2)ccc1O [FBL-03C] | 190 | 340 | 12.5
COc1ccc(-c2cc(=O)c3c(O)c(C/C=C(\C)CCC=C(C)C)c(O)cc3o2)cc1OC [FBL-03D] | > 30000 | > 30000 | –
COc1cc(-c2cc(=O)c3c(O)cc(O)c(CC=C(C)C)c3o2)ccc1O [FBL-03G] | < 1000 | > 20000 | 5.46

— US20180353462A1, “[…] AGENTS […] FLAVONOID DERIVATIVES TARGETING KINASES, SIRTUINS AND ONCOGENIC AGENTS FOR THE TREATMENT OF CANCERS” (priority 2015, published 2018)
